A value given as a limit tells only on which side of the number the result lay.

One assay has as its target T1, human GPR40 (Homo sapiens, UniProt O14842).
T1 construct: expressed in transfected cells
Kind of assay: GPR40 calcium flux assay, human GPR40. The class given is cell-based. The following applies: HEK293 cells stably expressing GPR40; table does not say human or rat. The gist of the method:
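Cells preincubated 1 h at 37° C. in HBSS, 20 mM HEPES, 0.1% BSA, then Fluo 8 calcium dye 30 min at 37° C. and 15 min at room temperature.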
(In general: A change in cytosolic calcium serves as a functional read-out for many receptors and channels.)

A further assay concerns the target T2, Human GPR120 short form (Homo sapiens, UniProt Q5NUL3).
T2 construct: expressed in transfected cells
T2 sequence (Q5NUL3 1-361): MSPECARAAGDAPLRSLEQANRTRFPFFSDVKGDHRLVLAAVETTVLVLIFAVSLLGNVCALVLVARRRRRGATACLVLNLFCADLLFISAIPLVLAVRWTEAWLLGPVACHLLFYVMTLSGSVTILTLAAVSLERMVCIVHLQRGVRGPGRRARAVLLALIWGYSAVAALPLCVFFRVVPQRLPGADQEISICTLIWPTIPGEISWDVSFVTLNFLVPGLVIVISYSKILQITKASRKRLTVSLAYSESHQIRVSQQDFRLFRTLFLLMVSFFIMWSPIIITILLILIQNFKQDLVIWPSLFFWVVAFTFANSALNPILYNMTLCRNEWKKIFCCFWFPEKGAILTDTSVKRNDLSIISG
Kind of assay: Human GPR120 calcium flux assay, Procedure Calcium B (4200 cells/well). The class given is cell-based. In outline: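 Agonist EC50 came from a four-parameter fit of RFU (Fmax−Fmin) read over 300 s on FLIPR. Cells were HEK293 stably transfected with human GPR120 (NM_001195755.1) at 4200 per well, serum-starved 1 h and loaded with Fluo-4 NW dye with probenecid before ligand addition.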

T1 sequence (O14842 whole entry): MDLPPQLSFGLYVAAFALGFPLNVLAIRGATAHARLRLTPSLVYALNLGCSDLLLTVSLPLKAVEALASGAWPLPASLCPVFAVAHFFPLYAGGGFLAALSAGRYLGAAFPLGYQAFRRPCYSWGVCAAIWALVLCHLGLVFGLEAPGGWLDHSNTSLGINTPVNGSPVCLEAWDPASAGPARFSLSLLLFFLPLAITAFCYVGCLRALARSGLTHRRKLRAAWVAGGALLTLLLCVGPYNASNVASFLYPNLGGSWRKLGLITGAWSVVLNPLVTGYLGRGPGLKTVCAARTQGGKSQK

The term EC50 denotes the concentration giving half of the maximal effect. For the compound `CCOc1ccc(C2=C(COc3ccc(CCC(=O)O)c(C)c3C)CCC2)cn1` [Compound 219, 3-[4-[[2-(6-ethoxy-3-pyridyl)cyclopenten-1-yl]methoxy]-2,3-dimethyl-phenyl]Propanoic Acid], the EC50 at human GPR40 is > 5000 nM; at Human GPR120 short form it was 1120 nM.

Regarding `COc1cc(C2=C(COc3ccc(CCC(=O)O)cc3)CCC2)ccc1C` [Compound 261], the concentration giving a half-maximal response (EC50) at human GPR40 amounted to 1620 nM; on Human GPR120 short form, 1540 nM.

Regarding `Cc1cc(OCC2=C(Cc3ccc(F)cc3)CCC2)c(F)cc1CCC(=O)O` [Compound 350, 3-[5-fluoro-4-[[2-[(4-fluorophenyl)methyl]cyclopenten-1-yl]methoxy]-2-methyl-phenyl]Propanoic Acid], the EC50 at human GPR40 is 669 nM; on Human GPR120 short form it was 1770 nM.

On to `Cc1ccc(C2=C(COc3ccc(CCC(=O)O)cc3)CCC2)cc1O` [Compound 234], for which the figures for the EC50 on human GPR40 and on Human GPR120 short form were > 5000 nM and 1140 nM, respectively.

Turning to `O=C(O)CCc1ccc(OCC2=C(Cc3ccccc3)CC(F)(F)C2)cc1C(F)(F)F` [Compound 358, 3-[4-[(2-benzyl-4,4-difluoro-cyclopenten-1-yl)methoxy]-2-(trifluoromethyl)phenyl]Propanoic Acid], the EC50 at human GPR40 amounted to 65 nM; on Human GPR120 short form, 951 nM.

For the compound `Cc1ccc(C2=C(COc3ccc(CCC(=O)O)c(Cl)c3)CCC2)cc1F` [Compound 296, 3-[2-chloro-4-[[2-(3-fluoro-4-methyl-phenyl)cyclopenten-1-yl]methoxy]phenyl]Propanoic Acid], the EC50 at human GPR40 was 1070 nM; at Human GPR120 short form it was 157 nM.

As for `Cc1cc(OCC2=C(C3CCCC3)CC(F)(F)C2)ccc1CCC(=O)O` [Compound 441, 3-[4-[(2-cyclopentyl-4,4-difluoro-cyclopenten-1-yl)methoxy]-2-methyl-phenyl]Propanoic Acid], the EC50 at human GPR40 is 35 nM; on Human GPR120 short form, 100 nM.

Take `O=C(O)CCc1ccc(OCC2=C(C3CCCC3)CCC2)c(F)c1C(F)(F)F` [Compound 435, 3-[4-[(2-cyclopentylcyclopenten-1-yl)methoxy]-3-fluoro-2-(trifluoromethyl)phenyl]Propanoic Acid]: the EC50 on human GPR40 was > 10000 nM; on Human GPR120 short form, > 5000 nM.

Regarding `O=C(O)CCc1ccc(OCC2=C(c3ccccc3Cl)CCC2)cc1Cl` [Compound 295, 3-[2-chloro-4-[[2-(2-chlorophenyl)cyclopenten-1-yl]methoxy]phenyl]Propanoic Acid], the values for the EC50 at human GPR40 and at Human GPR120 short form were 234 nM and 1650 nM, respectively.

Consider `Cc1c(CCC(=O)O)ccc(OCC2=C(C3=CCOCC3)CCC2)c1C` [Compound 239, 3-[4-[[2-(3,6-dihydro-2H-pyran-4-yl)cyclopenten-1-yl]methoxy]-2,3-dimethyl-phenyl]Propanoic Acid], for which the EC50 on human GPR40 is > 5000 nM; on Human GPR120 short form, 403 nM.

Regarding `CC(C)CC1=C(COc2ccc(CCC(=O)O)c(C(F)(F)F)c2)CCC1` [Compound 385, 3-(4-((2-isobutylcyclopent-1-en-1-yl)methoxy)-2-(trifluoromethyl)phenyl)Propanoic Acid], the concentration for a half-maximal effect (EC50) on human GPR40 turned out to be 12 nM; at Human GPR120 short form, 708 nM.

With `CC1CCC(c2ccccc2)=C1COc1ccc(CCC(=O)O)c(C(F)(F)F)c1` (centres unmarked) [Compound 367, 3-[4-[(5-methyl-2-phenyl-cyclopenten-1-yl)methoxy]-2-(trifluoromethyl)phenyl]Propanoic Acid], the figures for the EC50 on human GPR40 and at Human GPR120 short form were 1510 nM and 1140 nM, respectively.

Regarding `CCCCC1=C(COc2ccc(CCC(=O)O)c(C(F)(F)F)c2)CCC1` [Compound 370, 3-[4-[(2-butylcyclopenten-1-yl)methoxy]-2-(trifluoromethyl)phenyl]Propanoic Acid], the EC50 on human GPR40 stood at 133 nM; on Human GPR120 short form, 1150 nM.

As for `Cc1ccc(C2=C(COc3c(F)cc(CCC(=O)O)cc3F)CCC2)o1` [Compound 212, 3-[3,5-difluoro-4-[[2-(5-methyl-2-furyl)cyclopenten-1-yl]methoxy]phenyl]Propanoic Acid], the EC50 on human GPR40 and at Human GPR120 short form was > 5000 nM in each case.

As for `CC(C)CC1=C(COc2ccc(CCC(=O)O)c(Cl)c2)CCC1` [Compound 394, 3-[2-chloro-4-[(2-isobutylcyclopenten-1-yl)methoxy]phenyl]Propanoic Acid], the EC50 came to 129 nM at human GPR40 and 1410 nM at Human GPR120 short form.

`Cc1c(CCC(=O)O)cc(F)c(OCC2=C(c3ccc(F)cc3)CCC2)c1C` [Compound 254, 3-[5-fluoro-4-[[2-(4-fluorophenyl)cyclopenten-1-yl]methoxy]-2,3-dimethyl-phenyl]Propanoic Acid]: the EC50 on human GPR40 is > 5000 nM; on Human GPR120 short form, 594 nM.

Consider `Cc1c(CCC(=O)O)ccc(OCC2=C(c3ccc(Cl)cc3)C(C(C)C)CC2)c1C` (centres unmarked) [Compound 46, 3-[4-[[2-(4-chlorophenyl)-3-isopropyl-cyclopenten-1-yl]methoxy]-2,3-dimethyl-phenyl]Propanoic Acid], for which the concentration for a half-maximal effect (EC50) on human GPR40 and at Human GPR120 short form was > 5000 nM in each case.

Consider `COc1ccc(C2=C(COc3ccc(CCC(=O)O)cc3C)CCC2)cn1` [Compound 218, 3-[4-[[2-(6-methoxy-3-pyridyl)cyclopenten-1-yl]methoxy]-3-methyl-phenyl]Propanoic Acid], for which the EC50 at human GPR40 was > 5000 nM; at Human GPR120 short form, 89 nM.

As to `O=C(O)CCc1ccc(OCC2=C(C3CCC(F)(F)CC3)CCC2)cc1Cl` [Compound 411, 3-[2-chloro-4-[[2-(4,4-difluorocyclohexyl)cyclopenten-1-yl]methoxy]phenyl]Propanoic Acid], the figures for the EC50 at human GPR40 and on Human GPR120 short form were 133 nM and > 5000 nM, respectively.

Consider `Cc1cc(OCC2=C(c3ccc(Br)cc3)CCC2)c(F)cc1CCC(=O)O` [Compound 299, 3-[4-[[2-(4-bromophenyl)cyclopenten-1-yl]methoxy]-5-fluoro-2-methyl-phenyl]Propanoic Acid], for which the EC50 on human GPR40 was 661 nM; at Human GPR120 short form, 251 nM.

In the case of `O=C(O)CCc1ccc(OCC2=C(C3CC3)CCC2)cc1C(F)(F)F` [Compound 351, 3-[4-[(2-cyclopropylcyclopenten-1-yl)methoxy]-2-(trifluoromethyl)phenyl]Propanoic Acid], the EC50 at human GPR40 was 1230 nM; at Human GPR120 short form, > 5000 nM.

For the compound `O=C(O)CCc1ccc(OCC2=C(Cc3ccc(Cl)cc3)CCC2)cc1C(F)(F)F` [Compound 359, 3-[4-[[2-[(4-chlorophenyl)methyl]cyclopenten-1-yl]methoxy]-2-(trifluoromethyl)phenyl]Propanoic Acid], the EC50 is 81 nM at human GPR40 and 3110 nM at Human GPR120 short form.

As to `CCc1ccc(C2=C(COc3ccc(CCC(=O)O)c(Cl)c3)CCC2)cc1` [Compound 293, 3-[2-chloro-4-[[2-(4-ethylphenyl)cyclopenten-1-yl]methoxy]phenyl]Propanoic Acid], the concentration giving a half-maximal response (EC50) stood at 4240 nM on human GPR40 and 2180 nM at Human GPR120 short form.

Take `CCC(C)C1=C(COc2ccc(CCC(=O)O)c(C(F)(F)F)c2)CCC1` (centres unmarked) [Compound 388, 3-[4-[(2-sec-butylcyclopenten-1-yl)methoxy]-2-(trifluoromethyl)phenyl]Propanoic Acid]: the EC50 came out at 86 nM at human GPR40 and 1630 nM at Human GPR120 short form.

Consider `CC1CCC(COc2ccc(CCC(=O)O)cc2)=C1c1ccc(Cl)cc1` (centres unmarked) [Compound 328, 3-[4-[[2-(4-chlorophenyl)-3-methyl-cyclopenten-1-yl]methoxy]phenyl]Propanoic Acid], for which the 50% effective concentration (EC50) on human GPR40 amounted to 639 nM; on Human GPR120 short form, 307 nM.

Source of the values: patent publication US11230526B1, “Cylcoalkenyl derivatives useful as agonists of the GPR120 and/or GPR40 receptors” (Janssen Pharmaceutica NV, priority 2018, dated 2022).
